# Test results reported in US12139520B2 (priority 2020, dated 2024).
# pEC50: −log10 of the molar value. Bridge positions count the residues as written; N and C are the ends. Square brackets hold non-standard residues; d marks the D form. Peptide text beside a SMILES is read from it. Hyp = O=C(O)[C@@H]1C[C@@H](O)CN1; Cit = NC(=O)NCCC[C@H](N)C(=O)O
# Assays:
# hAMY3 receptor = biological target: T1, hAMY3 receptor (Homo sapiens, UniProt O60896+P30988); experiment: cAMP assay for in vitro receptor activation, hAMY3-R; format: cell-based; conditions: cAMP assay, hAMY3 receptor; read-out: hAMY3R EC50
# T1 sequence (P30988 25-474): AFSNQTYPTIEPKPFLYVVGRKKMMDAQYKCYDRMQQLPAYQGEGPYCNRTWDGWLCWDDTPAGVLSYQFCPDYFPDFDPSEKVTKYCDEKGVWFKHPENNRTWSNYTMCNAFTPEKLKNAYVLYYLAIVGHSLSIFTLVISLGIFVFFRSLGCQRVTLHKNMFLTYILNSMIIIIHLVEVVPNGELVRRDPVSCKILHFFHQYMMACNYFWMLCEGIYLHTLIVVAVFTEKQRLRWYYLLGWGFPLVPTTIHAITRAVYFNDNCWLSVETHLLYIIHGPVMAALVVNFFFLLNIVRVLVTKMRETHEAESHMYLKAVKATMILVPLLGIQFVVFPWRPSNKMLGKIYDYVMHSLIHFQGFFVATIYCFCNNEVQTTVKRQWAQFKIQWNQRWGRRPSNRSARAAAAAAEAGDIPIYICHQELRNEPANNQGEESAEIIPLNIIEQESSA
# T1 sequence (O60896 24-148 partner): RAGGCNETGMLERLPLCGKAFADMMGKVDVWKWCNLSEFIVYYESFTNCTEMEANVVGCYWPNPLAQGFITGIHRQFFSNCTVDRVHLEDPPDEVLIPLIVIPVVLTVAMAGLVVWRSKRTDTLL
# Procedure, shortened: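 Thawed cells from a sub-cloned monoclonal hAMY3-overexpressing line are plated in DPBS containing 0.05% casein and 0.5 mM IBMX. Test compounds are added immediately at graded doses for 30 min at room temperature. Reagents for cAMP detection are then added, and TR-FRET is recorded after one hour.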
# hAM1 receptor = hAM1 receptor (Homo sapiens, UniProt O60895+Q16602); experiment: cAMP assay for in vitro receptor activation, hAM1-R; format: cell-based; conditions: cAMP assay, hAM1 receptor; read-out: hAM1R EC50
# hAM1 receptor, sequence (Q16602 23-461): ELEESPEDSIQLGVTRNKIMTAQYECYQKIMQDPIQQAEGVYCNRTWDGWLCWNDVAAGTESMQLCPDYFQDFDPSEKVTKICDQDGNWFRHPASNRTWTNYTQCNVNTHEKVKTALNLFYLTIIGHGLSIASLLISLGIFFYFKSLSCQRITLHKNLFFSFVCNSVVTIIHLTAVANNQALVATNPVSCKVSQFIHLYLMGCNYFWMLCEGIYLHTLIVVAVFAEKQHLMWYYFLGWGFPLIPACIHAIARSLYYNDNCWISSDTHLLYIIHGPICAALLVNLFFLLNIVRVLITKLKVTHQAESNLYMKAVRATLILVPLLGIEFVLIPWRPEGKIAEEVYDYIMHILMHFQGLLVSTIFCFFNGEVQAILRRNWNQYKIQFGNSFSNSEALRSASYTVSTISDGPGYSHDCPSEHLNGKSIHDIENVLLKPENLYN
# hAM1 receptor, sequence (O60895 43-175 partner): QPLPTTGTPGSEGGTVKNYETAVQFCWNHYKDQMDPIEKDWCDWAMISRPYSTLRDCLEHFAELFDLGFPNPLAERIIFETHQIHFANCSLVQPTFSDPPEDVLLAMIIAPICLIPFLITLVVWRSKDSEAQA
# Procedure, shortened: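 Receptor activation, read as cAMP, was assessed in thawed cells of a monoclonal hAM1-overexpressing stable line, plated at 8000 cells/well in DPBS supplemented with 0.05% casein and 0.5 mM IBMX.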
# [1] = Physical stability of peptide analogues (Thioflavin T fibrillation); format: physicochemical; conditions: maximum ThT signal normalized between hAMY maximum and buffer background; 40° C., shaking, four days; pH 7 per table title
# Procedure, shortened: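 Maximum ThT emission at 480 nm, after LOESS smoothing, is given as percent of the span from buffer background to hAMY. Conditions: 50 mM buffer at pH 4 or 7, 4 μM dye, 40 °C, repeated shaking, readings every 10 min for four days.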
Structure (SMILES),pEC50 (hAMY3 receptor),pEC50 (hAM1 receptor),Max ThT signal (%) [1] [%]
CC[C@H](C)[C@H](NC(=O)[C@H](CCC(N)=O)NC(=O)[C@H](Cc1c[nH]cn1)NC(=O)[C@H](C)NC(=O)[C@H](CC(C)C)NC(=O)[C@H](CCCNC(N)=O)NC(=O)[C@H](CCC(N)=O)NC(=O)[C@@H](NC(=O)[C@@H](NC(=O)[C@@H]1CSSC[C@H](NC(=O)[C@@H](N)CCCCN)C(=O)N[C@@H](CC(N)=O)C(=O)N[C@@H]([C@@H](C)O)C(=O)N[C@@H](C)C(=O)N[C@@H]([C@@H](C)O)C(=O)N1)[C@@H](C)O)C(C)C)C(=O)N[C@@H](C)C(=O)N[C@@H](CCC(N)=O)C(=O)N[C@@H](Cc1ccccc1)C(=O)N[C@H](C(=O)N[C@@H](CC(=O)O)C(=O)N[C@@H](CCCCN)C(=O)N[C@@H](CC(=O)O)C(=O)N[C@@H](CCCCN)C(=O)N[C@@H](CC(=O)O)C(=O)N[C@@H](CC(N)=O)C(=O)N[C@H](C(=O)N[C@@H](C)C(=O)N1CCC[C@H]1C(=O)N1CCC[C@H]1C(=O)N[C@H](C(=O)N[C@@H](CC(N)=O)C(=O)N[C@H](C(=O)NCC(=O)N[C@@H](CO)C(=O)N[C@@H](CC(N)=O)C(=O)NCC(=O)N1C[C@H](O)C[C@H]1C(N)=O)C(C)C)[C@@H](C)O)C(C)C)[C@@H](C)O [compound 246] (H-KCNTATCTVQ[Cit]LAHQIAQFTDKDKDNVAPPTNVGSNG[Hyp]-NH2; disulfide 2-7),11.00,< 5.30,4.200
CC[C@H](C)[C@H](NC(=O)[C@H](CCC(N)=O)NC(=O)[C@H](CC(=O)O)NC(=O)[C@H](C)NC(=O)[C@H](CC(C)C)NC(=O)[C@H](Cc1c[nH]c2ccccc12)NC(=O)[C@H](C)NC(=O)[C@@H](NC(=O)[C@@H](NC(=O)[C@@H]1CSSC[C@H](NC(=O)[C@@H](N)CCCCN)C(=O)N[C@@H](CC(N)=O)C(=O)N[C@@H]([C@@H](C)O)C(=O)N[C@@H](CO)C(=O)N[C@@H]([C@@H](C)O)C(=O)N1)[C@@H](C)O)C(C)C)C(=O)N[C@H](C(=O)N[C@@H](CCC(N)=O)C(=O)N[C@@H](Cc1ccccc1)C(=O)N[C@@H](CO)C(=O)N[C@@H](CC(=O)O)C(=O)N[C@@H](CCCCN)C(=O)N[C@@H](CC(=O)O)C(=O)N[C@@H](CCCCN)C(=O)N[C@@H](C)C(=O)N[C@@H](CC(N)=O)C(=O)N[C@H](C(=O)N[C@@H](CO)C(=O)N1CCC[C@H]1C(=O)N1CCC[C@H]1C(=O)N[C@H](C(=O)N[C@@H](CCC(=O)O)C(=O)N[C@H](C(=O)NCC(=O)N1CCC[C@H]1C(=O)N[C@@H](CC(N)=O)C(=O)N[C@@H](CO)C(=O)N1C[C@H](O)C[C@H]1C(N)=O)C(C)C)[C@@H](C)O)C(C)C)[C@@H](C)O [compound 310] (H-KCNTSTCTVAWLADQITQFSDKDKANVSPPTEVGPNS[Hyp]-NH2; disulfide 2-7),11.52,< 5.30,3.500
CC[C@H](C)[C@H](NC(=O)[C@H](CCC(N)=O)NC(=O)[C@H](Cc1c[nH]cn1)NC(=O)[C@H](C)NC(=O)[C@H](CC(C)C)NC(=O)[C@H](CCCNC(=N)N)NC(=O)[C@H](CCC(N)=O)NC(=O)[C@@H](NC(=O)[C@@H](NC(=O)[C@@H]1CSSC[C@H](NC(=O)[C@@H](N)CCCCN)C(=O)N[C@@H](CC(N)=O)C(=O)N[C@@H]([C@@H](C)O)C(=O)N[C@@H](C)C(=O)N[C@@H]([C@@H](C)O)C(=O)N1)[C@@H](C)O)C(C)C)C(=O)N[C@@H](Cc1ccc(O)cc1)C(=O)N[C@@H](CCC(N)=O)C(=O)N[C@@H](C)C(=O)N[C@H](C(=O)N[C@@H](CC(=O)O)C(=O)N[C@@H](CCCCN)C(=O)N[C@@H](CC(=O)O)C(=O)N[C@@H](CCCCN)C(=O)N[C@@H](CC(=O)O)C(=O)N[C@@H](CC(N)=O)C(=O)N[C@H](C(=O)N[C@@H](C)C(=O)N1CCC[C@H]1C(=O)N1CCC[C@H]1C(=O)N[C@H](C(=O)N[C@@H](CC(N)=O)C(=O)N[C@H](C(=O)NCC(=O)N[C@@H](CO)C(=O)N[C@@H](CC(N)=O)C(=O)NCC(=O)N1C[C@H](O)C[C@H]1C(N)=O)C(C)C)[C@@H](C)O)C(C)C)[C@@H](C)O [compound 114] (H-KCNTATCTVQRLAHQIYQATDKDKDNVAPPTNVGSNG[Hyp]-NH2; disulfide 2-7; N-terminus assumed),10.66,< 5.30,2.200

# Second part, the molecule after the results:
pEC50 (hAMY3 receptor),pEC50 (hAM1 receptor),Max ThT signal (%) [1] [%],Structure (SMILES)
11.40,< 5.30,5.550,CC[C@H](C)[C@H](NC(=O)[C@H](CCC(N)=O)NC(=O)[C@H](Cc1c[nH]cn1)NC(=O)[C@H](C)NC(=O)[C@H](CC(C)C)NC(=O)[C@H](Cc1c[nH]c2ccccc12)NC(=O)[C@H](CCC(N)=O)NC(=O)[C@@H](NC(=O)[C@@H](NC(=O)[C@@H]1CSSC[C@H](NC(=O)[C@@H](N)CCCCN)C(=O)N[C@@H](CC(N)=O)C(=O)N[C@@H]([C@@H](C)O)C(=O)N[C@@H](C)C(=O)N[C@@H]([C@@H](C)O)C(=O)N1)[C@@H](C)O)C(C)C)C(=O)N[C@@H](Cc1ccc(O)cc1)C(=O)N[C@@H](CCC(N)=O)C(=O)N[C@@H](Cc1ccccc1)C(=O)N[C@H](C(=O)N[C@@H](CCCCN)C(=O)N[C@@H](CC(=O)O)C(=O)N[C@@H](CCCCN)C(=O)N[C@@H](CC(=O)O)C(=O)N[C@@H](CC(N)=O)C(=O)N[C@H](C(=O)N[C@@H](C)C(=O)N1CCC[C@H]1C(=O)N1CCC[C@H]1C(=O)N[C@H](C(=O)N[C@@H](CC(N)=O)C(=O)N[C@H](C(=O)NCC(=O)N[C@@H](CO)C(=O)N[C@@H](CC(N)=O)C(=O)NCC(=O)N1C[C@H](O)C[C@H]1C(N)=O)C(C)C)[C@@H](C)O)C(C)C)[C@@H](C)O [compound 317] (H-KCNTATCTVQWLAHQIYQFTKDKDNVAPPTNVGSNG[Hyp]-NH2; disulfide 2-7; N-terminus assumed)
11.00,< 5.30,11.200,CC[C@H](C)[C@H](NC(=O)[C@H](CCC(N)=O)NC(=O)[C@H](CC(=O)O)NC(=O)[C@H](C)NC(=O)[C@H](CC(C)C)NC(=O)[C@H](Cc1c[nH]c2ccccc12)NC(=O)[C@H](CC(N)=O)NC(=O)[C@@H](NC(=O)[C@@H](NC(=O)[C@@H]1CSSC[C@H](NC(=O)[C@@H](N)CCCNC(=N)N)C(=O)N[C@@H](CC(N)=O)C(=O)N[C@@H](C)C(=O)N[C@@H](CO)C(=O)N[C@@H]([C@@H](C)O)C(=O)N1)[C@@H](C)O)C(C)C)C(=O)N[C@H](C(=O)N[C@@H](CCC(N)=O)C(=O)N[C@@H](Cc1ccccc1)C(=O)N[C@@H](CO)C(=O)N[C@@H](CC(N)=O)C(=O)N[C@@H](CCCCN)C(=O)N[C@@H](CC(=O)O)C(=O)N[C@@H](CCCCN)C(=O)N[C@@H](C)C(=O)N[C@@H](CCC(N)=O)C(=O)N[C@H](C(=O)N[C@@H](CO)C(=O)N1CCC[C@H]1C(=O)N1CCC[C@H]1C(=O)N[C@H](C(=O)N[C@@H](CCC(=O)O)C(=O)N[C@H](C(=O)NCC(=O)N1CCC[C@H]1C(=O)N[C@@H](CC(N)=O)C(=O)N[C@@H](CO)C(=O)N1C[C@H](O)C[C@H]1C(N)=O)C(C)C)[C@@H](C)O)C(C)C)[C@@H](C)O [compound 307] (H-RCNASTCTVNWLADQITQFSNKDKAQVSPPTEVGPNS[Hyp]-NH2; disulfide 2-7; N-terminus assumed)
9.90,< 5.30,12.600,CC[C@H](C)[C@H](NC(=O)[C@H](CCC(N)=O)NC(=O)[C@H](Cc1c[nH]cn1)NC(=O)[C@H](C)NC(=O)[C@H](CC(C)C)NC(=O)[C@H](CCCNC(=N)N)NC(=O)[C@H](CCC(N)=O)NC(=O)[C@@H](NC(=O)[C@@H](NC(=O)[C@@H]1CSSC[C@H](NC(=O)CN)C(=O)N[C@@H](CCCNC(=N)N)C(=O)N[C@@H](Cc2c[nH]c3ccccc23)C(=O)NCC(=O)N[C@@H]([C@@H](C)O)C(=O)N1)[C@@H](C)O)C(C)C)C(=O)N[C@@H](Cc1ccc(O)cc1)C(=O)N[C@@H](CCC(N)=O)C(=O)N[C@@H](Cc1ccccc1)C(=O)N[C@H](C(=O)N[C@@H](CC(=O)O)C(=O)N[C@@H](CCCCN)C(=O)N[C@@H](CC(=O)O)C(=O)N[C@@H](CCCCN)C(=O)N[C@@H](CC(=O)O)C(=O)N[C@@H](CC(N)=O)C(=O)N[C@H](C(=O)N[C@@H](C)C(=O)N1CCC[C@H]1C(=O)N[C@@H](CO)C(=O)N[C@@H](CO)C(=O)N[C@@H](CCCCN)C(=O)N[C@H](C(=O)N[C@@H](CO)C(=O)N1CCC[C@H]1C(=O)N[C@@H](CCC(N)=O)C(=O)N[C@H](C(=O)N1C[C@H](O)C[C@H]1C(N)=O)[C@@H](C)O)[C@@H](C)CC)C(C)C)[C@@H](C)O [compound 202] (H-GCRWGTCTVQRLAHQIYQFTDKDKDNVAPSSKISPQT[Hyp]-NH2; disulfide 2-7)
